This passage reports IC50 and inhibition results from ChEMBL document CHEMBL4725381, “Synthesis and activity of isoleucine sulfonamide derivatives as novel botulinum neurotoxin serotype A light chain inhibitors” (Bioorg Med Chem, 2020).

Activity calls are given as the source filed them. The rule behind the calls is not given here.

In one assay the target is Botulinum neurotoxin type A (Clostridium botulinum, UniProt P0DPI0). As to the kind of experiment: Inhibition of Clostridium botulinum BoNT/A light chain using SNAPtide as substrate preincubated with enzyme for 2 mins followed by substrate addition and measured for 0-5 mins by FRET assay.
Chain of Botulinum neurotoxin type A (P0DPI0 2-448 limits assumed): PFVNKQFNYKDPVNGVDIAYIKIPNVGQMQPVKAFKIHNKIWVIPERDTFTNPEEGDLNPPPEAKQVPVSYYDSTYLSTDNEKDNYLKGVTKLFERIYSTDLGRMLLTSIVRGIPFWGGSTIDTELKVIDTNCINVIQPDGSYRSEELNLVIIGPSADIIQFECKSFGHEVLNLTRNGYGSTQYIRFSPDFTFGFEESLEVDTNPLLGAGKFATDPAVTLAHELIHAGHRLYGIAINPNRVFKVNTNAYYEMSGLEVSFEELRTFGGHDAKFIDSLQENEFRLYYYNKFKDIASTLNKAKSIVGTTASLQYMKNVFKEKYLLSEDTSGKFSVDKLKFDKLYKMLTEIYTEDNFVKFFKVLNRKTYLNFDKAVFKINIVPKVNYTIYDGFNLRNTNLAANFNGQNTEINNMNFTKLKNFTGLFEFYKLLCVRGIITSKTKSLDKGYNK
`CC[C@@H](C)[C@@H](NS(=O)(=O)c1cccc(-c2cc3ccccc3o2)c1)C(=O)NO` displayed a concentration for half-maximal inhibition (IC50) of 14 µM. On to `CC[C@@H](C)[C@@H](NS(=O)(=O)c1cccc(-c2ccccc2Cl)c1)C(=O)NO`, for which the concentration for half-maximal inhibition (IC50) stood at 0.587 µM.

In the next assay the target is Botulinum neurotoxin type A (Clostridium botulinum) (UniProt P0DPI0). Description: Inhibition of Clostridium botulinum BoNT/A light chain at 30 uM using SNAPtide as substrate preincubated with enzyme for 2 mins followed by substrate addition and measured for 0-5 mins by FRET assay relative to control.
Chain of Botulinum neurotoxin type A (Clostridium botulinum) (P0DPI0 2-448 limits assumed): as above
`CC[C@H](C)[C@H](NC(=O)c1cccc(-c2ccccc2Cl)c1)C(=O)NO` registered an inhibition of 50%. Same read-out and setting: then `CC[C@H](C)[C@H](NS(=O)(=O)c1cccc(-c2cc(Cl)ccc2Cl)c1)C(=O)NO`, with 29%; and `CC[C@H](C)[C@H](NC(=O)c1cccc(-c2ccco2)c1)C(=O)NO`, with 58%; and `CC[C@@H](C)[C@@H](NS(=O)(=O)c1cccc(-c2cc3ccccc3o2)c1)C(=O)NO`, with 94%. Still for that read-out and setting: the figure for `CC[C@H](C)[C@H](NS(=O)(=O)c1cccc(-c2cccc([N+](=O)[O-])c2)c1)C(=O)NO` is 34%. On the same count and under the same terms, then `O=C(NO)C1(NS(=O)(=O)c2cccc(-c3cc4ccccc4o3)c2)CC1`, with “inactive”; and `CC(C)C[C@@H](NS(=O)(=O)c1cccc(-c2cc3ccccc3o2)c1)C(=O)NO`, with 86%; and `CCCC[C@H](NS(=O)(=O)c1cccc(-c2cc3ccccc3o2)c1)C(=O)NO`, with 44%. `CC[C@H](C)[C@H](NS(=O)(=O)c1cccc(-c2ccc([N+](=O)[O-])cc2)c1)C(=O)NO` came in with an inhibition of 41%. Consider `CC[C@H](C)[C@H](NS(=O)(=O)c1cccc(-c2ccc(Cl)cc2Cl)c1)C(=O)NO`, for which the inhibition is 48%. Same read-out and setting: then `CC[C@H](C)[C@H](NC(=O)c1cccc(-c2cc(Cl)ccc2Cl)c1)C(=O)NO`, with 68%; and `CC[C@H](C)[C@H](NS(=O)(=O)c1cccc(-c2c(Cl)cccc2Cl)c1)C(=O)NO`, with 66%; and `CC(C)C[C@@H](NC(=O)c1cccc(-c2cc3ccccc3o2)c1)C(=O)NO`, with 58%. Still for that read-out and setting: the figure for `CC[C@H](C)[C@H](NS(=O)(=O)c1cccc(-c2ccoc2)c1)C(=O)NO` is 14%; for `CC[C@H](C)[C@H](NS(=O)(=O)c1cccc(-c2cccc(Cl)c2)c1)C(=O)NO` it is 44%.

Consider `CC[C@H](C)[C@H](NS(=O)(=O)c1cccc(-c2ccco2)c1)C(=O)NO`, for which the inhibition is 40%. Turning to `CC[C@H](C)[C@H](NS(=O)(=O)c1cccc(-c2ccc(Cl)c(Cl)c2)c1)C(=O)NO`, the inhibition worked out at 26%. The same measure, in the same setting: then `CC[C@H](C)[C@H](NS(=O)(=O)c1cccc(-c2ccccc2Cl)c1)C(=O)NO`, with 50%; and `CC[C@H](C)[C@H](NS(=O)(=O)c1cccc(-c2cc3ccccc3o2)c1)C(=O)NO`, with 61%. The same measure, in the same setting: the figure for `CC[C@@H](C)[C@@H](NC(=O)c1cccc(-c2cc3ccccc3o2)c1)C(=O)NO` is 16%; for `CC[C@H](C)[C@H](NC(=O)c1cccc(-c2cccc(Cl)c2)c1)C(=O)NO` it is 64%. In the case of `CC[C@H](C)[C@H](NC(=O)c1cccc(-c2cc3ccccc3o2)c1)C(=O)NO`, the inhibition was determined as 80%.
